Data taken from patent publication US10660877B2 (BRISTOL-MYERS SQUIBB COMPANY, priority 2016, dated 2020).
Where two headings read alike, the source gives them in different places.

Assays:
human TLR9 = human TLR9 (Homo sapiens (Human), UniProt Q9NR96); assay: TLR9 inhibition reporter assay (HEK-Blue cells, SEAP reporter, ODN2006 stimulation);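 also: compounds tested over 0.05 nM to 50 µM, 22 h incubation, inhibition taken as SEAP signal drop from agonist plus DMSO wells toward a known inhibitor control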
human TLR8 = human TLR8 (Homo sapiens (Human), UniProt Q9NR97); assay: TLR8 inhibition reporter assay (HEK-Blue cells, SEAP reporter, R848 stimulation);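 also: compounds tested from 0.05 nM to 50 µM, 22 h at 37 °C, SEAP measured with HEK-Blue Detection, inhibition relative to agonist plus DMSO versus a known inhibitor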
human TLR7 = human TLR7 (Homo sapiens (Human), UniProt Q9NYK1); assay: TLR7 inhibition reporter assay (HEK-Blue cells, SEAP reporter, gardiquimod stimulation); format: cell-based
Method: TLR7/8/9 Inhibition Reporter Assays
Briefly, cells are seeded into Greiner 384 well plates (15000 cells per well for TLR7, 20,000 for TLR8 and 25,000 for TLR9) and then treated with test compounds in DMSO to yield a final dose response concentration range of 0.05 nM-50 μM. […] After a 22 hour incubation at 37° C., 5% CO2, SEAP levels are determined with the addition of HEK-Blue™ Detection reagent (Invivogen), a cell culture medium that allows for detection of SEAP, according to manufacturer's specifications. The percent inhibition is determined as the % reduction in the HEK-Blue signal present in wells treated with agonist plus DMSO alone compared to wells treated with a known inhibitor.

[1] = read-out: TLR9 IC50, HEK-Blue cells, ODN2006 5 nM
[2] = read-out: TLR8 IC50, HEK-Blue cells, R848 15.9 μM
[3] = HEK-Blue cells, gardiquimod 7.5 μM
[4] = read-out: TLR9 IC50, HEK-Blue cells overexpressing human TLR9, ODN2006 5 nM
[5] = read-out: TLR8 IC50, HEK-Blue cells overexpressing human TLR8, R848 15.9 μM
[6] = HEK-Blue cells overexpressing human TLR7, gardiquimod 7.5 μM
[7] = TLR9 IC50, HEK-Blue cells overexpressing human TLR9, ODN2006 5 nM
[8] = TLR8 IC50, HEK-Blue cells overexpressing human TLR8, R848 15.9 μM

Chain of human TLR7 (Q9NYK1 27-1049): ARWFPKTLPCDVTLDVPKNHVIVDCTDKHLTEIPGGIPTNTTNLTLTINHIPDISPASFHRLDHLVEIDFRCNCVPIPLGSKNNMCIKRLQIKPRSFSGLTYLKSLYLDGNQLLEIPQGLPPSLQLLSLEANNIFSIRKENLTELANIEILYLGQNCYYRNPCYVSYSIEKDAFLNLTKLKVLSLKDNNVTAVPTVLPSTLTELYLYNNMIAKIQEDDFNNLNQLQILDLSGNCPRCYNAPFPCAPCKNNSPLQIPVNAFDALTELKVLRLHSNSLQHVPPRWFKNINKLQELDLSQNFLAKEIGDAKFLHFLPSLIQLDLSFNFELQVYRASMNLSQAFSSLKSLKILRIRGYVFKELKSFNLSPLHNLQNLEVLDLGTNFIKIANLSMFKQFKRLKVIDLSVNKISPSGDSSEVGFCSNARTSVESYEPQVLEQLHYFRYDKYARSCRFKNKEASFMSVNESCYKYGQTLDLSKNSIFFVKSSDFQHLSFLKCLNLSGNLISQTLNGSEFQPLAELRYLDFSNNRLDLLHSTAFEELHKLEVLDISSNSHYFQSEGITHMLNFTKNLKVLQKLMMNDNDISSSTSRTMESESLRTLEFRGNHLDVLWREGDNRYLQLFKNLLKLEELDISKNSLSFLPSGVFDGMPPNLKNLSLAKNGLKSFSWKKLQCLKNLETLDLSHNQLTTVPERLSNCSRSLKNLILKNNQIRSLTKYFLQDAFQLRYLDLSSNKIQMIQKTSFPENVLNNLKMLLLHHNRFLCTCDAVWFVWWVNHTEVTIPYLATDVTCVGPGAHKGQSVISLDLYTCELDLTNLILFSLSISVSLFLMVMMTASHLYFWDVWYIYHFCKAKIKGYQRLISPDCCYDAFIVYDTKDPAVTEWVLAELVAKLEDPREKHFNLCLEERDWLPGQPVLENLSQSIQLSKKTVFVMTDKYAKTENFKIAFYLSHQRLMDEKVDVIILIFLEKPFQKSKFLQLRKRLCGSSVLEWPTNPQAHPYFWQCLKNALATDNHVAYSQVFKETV
Chain of human TLR9 (Q9NR96 26-1032): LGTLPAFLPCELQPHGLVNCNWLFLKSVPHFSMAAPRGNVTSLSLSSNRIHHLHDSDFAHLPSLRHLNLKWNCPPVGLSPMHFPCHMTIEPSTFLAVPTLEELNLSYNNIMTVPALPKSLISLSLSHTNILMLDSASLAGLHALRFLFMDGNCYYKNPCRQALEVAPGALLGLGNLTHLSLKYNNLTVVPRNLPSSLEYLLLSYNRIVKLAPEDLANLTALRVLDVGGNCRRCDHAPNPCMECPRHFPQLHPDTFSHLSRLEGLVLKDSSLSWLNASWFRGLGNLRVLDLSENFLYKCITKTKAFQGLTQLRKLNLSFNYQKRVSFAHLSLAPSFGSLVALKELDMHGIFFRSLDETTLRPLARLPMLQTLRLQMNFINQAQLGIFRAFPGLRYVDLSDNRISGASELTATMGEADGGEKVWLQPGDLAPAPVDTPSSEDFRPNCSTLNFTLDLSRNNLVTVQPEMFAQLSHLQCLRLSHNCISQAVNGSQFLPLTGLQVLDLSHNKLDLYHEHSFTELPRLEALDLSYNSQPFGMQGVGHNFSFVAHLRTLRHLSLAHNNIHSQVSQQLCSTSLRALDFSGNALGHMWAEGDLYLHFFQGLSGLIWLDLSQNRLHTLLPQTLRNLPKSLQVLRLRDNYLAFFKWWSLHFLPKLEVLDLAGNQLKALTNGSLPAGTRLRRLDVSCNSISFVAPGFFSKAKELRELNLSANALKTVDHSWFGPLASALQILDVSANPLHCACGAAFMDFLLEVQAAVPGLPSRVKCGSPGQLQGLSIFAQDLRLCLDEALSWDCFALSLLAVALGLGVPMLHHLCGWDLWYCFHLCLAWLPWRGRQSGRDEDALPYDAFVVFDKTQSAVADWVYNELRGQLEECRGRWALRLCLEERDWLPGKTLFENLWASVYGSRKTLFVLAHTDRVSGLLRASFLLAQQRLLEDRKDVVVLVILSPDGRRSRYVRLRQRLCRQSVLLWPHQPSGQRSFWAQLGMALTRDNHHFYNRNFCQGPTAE
Chain of human TLR8 (Q9NR97 27-1041): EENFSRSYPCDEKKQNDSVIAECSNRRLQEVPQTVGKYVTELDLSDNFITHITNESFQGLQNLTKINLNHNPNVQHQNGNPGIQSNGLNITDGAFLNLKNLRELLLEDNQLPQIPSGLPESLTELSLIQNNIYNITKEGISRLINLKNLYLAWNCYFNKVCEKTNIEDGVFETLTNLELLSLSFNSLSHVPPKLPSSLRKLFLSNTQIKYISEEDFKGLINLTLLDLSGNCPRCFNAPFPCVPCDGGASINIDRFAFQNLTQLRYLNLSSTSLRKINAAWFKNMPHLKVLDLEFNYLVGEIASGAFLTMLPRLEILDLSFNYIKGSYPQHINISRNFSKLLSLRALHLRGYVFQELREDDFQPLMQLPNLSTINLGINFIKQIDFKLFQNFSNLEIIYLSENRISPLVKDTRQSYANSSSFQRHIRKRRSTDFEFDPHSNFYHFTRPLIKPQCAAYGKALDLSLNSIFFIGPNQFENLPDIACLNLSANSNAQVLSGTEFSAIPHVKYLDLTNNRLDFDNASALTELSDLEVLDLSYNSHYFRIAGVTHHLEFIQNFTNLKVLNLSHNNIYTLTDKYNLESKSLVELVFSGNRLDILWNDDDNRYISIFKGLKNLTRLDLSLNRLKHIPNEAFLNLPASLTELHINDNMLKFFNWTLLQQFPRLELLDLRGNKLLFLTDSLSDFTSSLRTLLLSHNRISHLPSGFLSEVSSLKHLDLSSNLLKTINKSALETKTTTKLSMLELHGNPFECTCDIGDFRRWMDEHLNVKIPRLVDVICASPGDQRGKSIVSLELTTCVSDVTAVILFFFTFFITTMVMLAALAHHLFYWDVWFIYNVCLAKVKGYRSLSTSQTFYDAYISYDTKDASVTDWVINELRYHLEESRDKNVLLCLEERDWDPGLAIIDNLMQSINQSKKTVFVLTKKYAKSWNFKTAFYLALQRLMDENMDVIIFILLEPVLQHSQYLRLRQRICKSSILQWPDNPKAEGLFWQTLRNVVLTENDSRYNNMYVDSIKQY

Structure (SMILES)	IC50 (human TLR9; [1]) [nM]	IC50 (human TLR8; [2]) [nM]	IC50 (human TLR7; [3]) [nM]	IC50 (human TLR9; [4]) [nM]	IC50 (human TLR8; [5]) [nM]	IC50 (human TLR7; [6]) [nM]	IC50 (human TLR9; [7]) [nM]	IC50 (human TLR8; [8]) [nM]
Cc1cc(-c2[nH]c3ccc(C4CCN(Cc5cnc(C)[nH]5)CC4)cc3c2C(C)C)ccn1 [Example 821, 3-isopropyl-5-(1-((2-methyl-1H-imidazol-5-yl)methyl)piperidin-4-yl)-2-(2-methylpyridin-4-yl)-1H-indole]	192	4.8	36.3	–	–	–	–	–
CNCCC(=O)N1CCC(c2ccc3[nH]c(-c4ccnc(C)c4)c(C(C)C)c3c2)CC1 [Example 570, 1-(4-(3-isopropyl-2-(2-methylpyridin-4-yl)-1H-indol-5-yl)piperidin-1-yl)-3-(methylamino)propan-1-one]	–	–	–	971	12	13.1	–	–
Cc1cc(-c2[nH]c3ccc(C4CCN(C(=O)CN5CCCS5(=O)=O)CC4)cc3c2C(C)C)cc(C)n1 [Example 152, 1-(4-(2-(2,6-dimethylpyridin-4-yl)-3-isopropyl-1H-indol-5-yl)piperidin-1-yl)-2-(1,1-dioxidoisothiazolidin-2-yl)ethan-1-one]	–	–	–	30400	49.8	5	–	–
CCc1c(-c2ccnc(C)c2)[nH]c2c(F)cc(C3CCNCC3)cc12 [Example 81, 3-ethyl-7-fluoro-2-(2-methylpyridin-4-yl)-5-(piperidin-4-yl)-1H-indole]	–	–	–	696	907	614	–	–
Cc1cc(-c2[nH]c3ccc(C4CCN(C(=O)CN5CCC(F)(F)C5)CC4)cc3c2C(C)C)cc(C)n1 [Example 341, 2-(3,3-difluoropyrrolidin-1-yl)-1-(4-(2-(2,6-dimethylpyridin-4-yl)-3-isopropyl-1H-indol-5-yl)piperidin-1-yl)ethan-1-one]	–	–	–	25400	211	22.7	–	–
Cc1cc(-c2[nH]c3cc(F)c(C4CCN(C5CCOCC5)CC4)cc3c2C(C)C)cc(C)n1 [Example 831, 2-(2,6-dimethylpyridin-4-yl)-6-fluoro-3-isopropyl-5-(1-(tetrahydro-2H-pyran-4-yl)piperidin-4-yl)-1H-indole]	567	11.6	6.2	–	–	–	–	–
Cc1cc(-c2[nH]c3ccc(C4CCN(CC(=O)N5C[C@@H](C(F)(F)F)C[C@H]5CO)CC4)cc3c2C(C)C)cc(C)n1 [Example 291, 2-(4-(2-(2,6-dimethylpyridin-4-yl)-3-isopropyl-1H-indol-5-yl)piperidin-1-yl)-1-((2S,4S)-2-(hydroxymethyl)-4-(trifluoromethyl)pyrrolidin-1-yl)ethan-1-one]	–	–	–	3200	124	18.1	–	–
Cc1cc(-c2[nH]c3ccc(C4CCN(C5CCCN(C(C)C)C5)CC4)cc3c2C(C)C)ccn1 (stereo not drawn) [Example 707, 3-isopropyl-5-(1′-isopropyl-[1,3′-bipiperidin]-4-yl)-2-(2-methylpyridin-4-yl)-1H-indole]	–	–	–	217	2.8	7.6	–	–
Cc1cc(-c2[nH]c3ccc(C4CCN(C(=O)CN5CC[C@@H](O)C5)CC4)cc3c2C(C)C)cc(C)n1 [Example 391, (R)-1-(4-(2-(2,6-dimethylpyridin-4-yl)-3-isopropyl-1H-indol-5-yl)piperidin-1-yl)-2-(3-hydroxypyrrolidin-1-yl)ethan-1-one]	–	–	–	691	6.4	1.3	–	–
CCCS(=O)(=O)N1CCC(c2ccc3[nH]c(-c4ccnc(C)c4)c(C(C)C)c3c2)CC1 [Example 545, 3-isopropyl-2-(2-methylpyridin-4-yl)-5-(1-(propylsulfonyl)piperidin-4-yl)-1H-indole]	–	–	–	> 50000	266	102	–	–
CCc1c(-c2ccnc(C)c2)[nH]c2ccc(C3CCN(C(=O)c4ccncc4)CC3)cc12 [Example 591, (4-(3-ethyl-2-(2-methylpyridin-4-yl)-1H-indol-5-yl)piperidin-1-yl)(pyridin-4-yl)methanone]	–	–	–	15400	241	251	–	–
CCc1c(-c2ccnc(C)c2)[nH]c2ccc(C3CCN(C(=O)C4CCNC4)CC3)cc12 (stereo not drawn) [Example 595, (4-(3-ethyl-2-(2-methylpyridin-4-yl)-1H-indol-5-yl)piperidin-1-yl)(pyrrolidin-3-yl)methanone]	–	–	–	348	32.7	84.7	–	–
Cc1cc(-c2[nH]c3ccc(C4CCN(C(=O)C5CC(=O)N(C)C5)CC4)cc3c2C(C)C)cc(C)n1 (single isomer, unassigned) [Example 101, 4-(4-(2-(2,6-dimethylpyridin-4-yl)-3-isopropyl-1H-indol-5-yl)piperidine-1-carbonyl)-1-methylpyrrolidin-2-one]	–	–	–	–	–	9.3	36900	52.4
CNC(=O)CN1CCC(c2ccc3[nH]c(-c4cc(C)nc(F)c4)c(C(C)C)c3c2)CC1 [Example 498, 2-(4-(2-(2-fluoro-6-methylpyridin-4-yl)-3-isopropyl-1H-indol-5-yl)piperidin-1-yl)-N-methylacetamide]	–	–	–	6940	1240	834	–	–
CCc1c(-c2ccnc(C)c2)[nH]c2ccc(C3CCN(C(=O)C4CCN(C)CC4)CC3)cc12 [Example 593, (4-(3-ethyl-2-(2-methylpyridin-4-yl)-1H-indol-5-yl)piperidin-1-yl)(1-methylpiperidin-4-yl)methanone]	–	–	–	513	17.4	43	–	–
Cc1cc(-c2[nH]c3ccc(C4CCN(CC(=O)N(C)CC(C)(C)O)CC4)cc3c2C(C)C)cc(C)n1 [Example 305, 2-(4-(2-(2,6-dimethylpyridin-4-yl)-3-isopropyl-1H-indol-5-yl)piperidin-1-yl)-N-(2-hydroxy-2-methylpropyl)-N-methylacetamide]	–	–	–	271	11.1	4.9	–	–
Cc1cc(-c2[nH]c3ccc(C4CCN(Cc5ccn[nH]5)CC4)cc3c2C(C)C)cc(C)n1 [Example 441, 5-(1-((1H-pyrazol-5-yl)methyl)piperidin-4-yl)-2-(2,6-dimethylpyridin-4-yl)-3-isopropyl-1H-indole]	–	–	–	303	1.7	1.6	–	–
Cc1cc(-c2[nH]c3ccc(C4CCN(C(=O)C(F)F)CC4)cc3c2C(C)C)cc(C)n1 [Example 105, 1-(4-(2-(2,6-dimethylpyridin-4-yl)-3-isopropyl-1H-indol-5-yl)piperidin-1-yl)-2,2-difluoroethan-1-one]	–	–	–	–	–	3.3	12000	21.8
COCCN(C)CC(=O)N1CCC(c2ccc3[nH]c(-c4cc(C)nc(C)c4)c(C(C)C)c3c2)CC1 [Example 148, 1-(4-(2-(2,6-dimethylpyridin-4-yl)-3-isopropyl-1H-indol-5-yl)piperidin-1-yl)-2-((2-methoxyethyl)(methyl)amino)ethan-1-one]	–	–	–	900	9.8	2.2	–	–
Cc1cc(-c2[nH]c3ccc(C4CCN(CC5CCC5)CC4)cc3c2C(C)C)cc(C)n1 [Example 467, 5-(1-(cyclobutylmethyl)piperidin-4-yl)-2-(2,6-dimethylpyridin-4-yl)-3-isopropyl-1H-indole]	–	–	–	155	5.8	2.5	–	–
CNCC(=O)N1CCC(c2ccc3[nH]c(-c4cc(C)nc(C5CC5)c4)c(C(C)C)c3c2)CC1 [Example 508, 1-(4-(2-(2-cyclopropyl-6-methylpyridin-4-yl)-3-isopropyl-1H-indol-5-yl)piperidin-1-yl)-2-(methylamino)ethan-1-one]	–	–	–	592	57.9	8.8	–	–
Cc1cc(-c2[nH]c3ccc(C4CCN(CC(=O)N(C)C)CC4)cc3c2CC(F)F)cc(C)n1 [Example 531, 2-(4-(3-(2,2-difluoroethyl)-2-(2,6-dimethylpyridin-4-yl)-1H-indol-5-yl)piperidin-1-yl)-N,N-dimethylacetamide]	–	–	–	221	63.9	15.7	–	–
CNCCN1CCC(c2ccc3[nH]c(-c4ccnc(N5CCN(C)CC5)c4)c(C)c3c2)CC1 [Example 746, N-methyl-2-(4-(3-methyl-2-(2-(4-methylpiperazin-1-yl)pyridin-4-yl)-1H-indol-5-yl)piperidin-1-yl)ethan-1-amine]	–	–	–	69	> 50000	4030	–	–
Cc1cc(-c2[nH]c3ccc(C4CCN(CC(=O)N5CCC5)CC4)cc3c2C(C)C)cc(C)n1 [Example 227, 1-(azetidin-1-yl)-2-(4-(2-(2,6-dimethylpyridin-4-yl)-3-isopropyl-1H-indol-5-yl)piperidin-1-yl)ethan-1-one]	–	–	–	1500	9.1	3.8	–	–
Cc1nc(CN2CCC(c3ccc4[nH]c(-c5ccnc(C6CC6)c5)c(C(C)C)c4c3)CC2)c[nH]1 [Example 484, 2-(2-cyclopropylpyridin-4-yl)-3-isopropyl-5-(1-((2-methyl-1H-imidazol-4-yl)methyl)piperidin-4-yl)-1H-indole]	–	–	–	279	96.3	77.6	–	–
Cc1cc(-c2[nH]c3ccc(C4CCN(CC(=O)N5CCC[C@H](O)C5)CC4)cc3c2C(C)C)cc(C)n1 [Example 210, (S)-2-(4-(2-(2,6-dimethylpyridin-4-yl)-3-isopropyl-1H-indol-5-yl)piperidin-1-yl)-1-(3-hydroxypiperidin-1-yl)ethan-1-one]	–	–	–	–	–	2	225	6.2
CCc1c(-c2cc(Cl)ncc2F)[nH]c2ccc(C3CCN(C4CCN(CC(C)C)CC4)CC3)cc12 [Example 760, 2-(2-chloro-5-fluoropyridin-4-yl)-3-ethyl-5-(1′-isobutyl-[1,4′-bipiperidin]-4-yl)-1H-indole]	–	–	–	2390	107	537	–	–
